These results are taken from BindingDB's records for PubMed 22948716 (Children's Hospital of Philadelphia).

Experiment [1] in a line: Inhibition of CENP-E in human SK-N-FI cells assessed as decrease in cell viability after 72 hrs by Cell-titer Glo reagent assay.
The nature of experiment [2]: Inhibition of CENP-E in human RKO cells expressing BRAF mutant assessed as decrease in cell viability after 72 hrs by Cell-titer Glo reagent assay.
Experiment [3] in a line: Inhibition of CENP-E in human SW620 cells expressing KRAS mutant assessed as decrease in cell viability after 72 hrs by Cell-titer Glo reagent assay.
The nature of experiment [4]: Inhibition of CENP-E in human HCT-116 cells expressing KRAS mutant assessed as decrease in cell viability after 72 hrs by Cell-titer Glo reagent assay.
Experiment [5] in a line: Inhibition of CENP-E in human SK-N-FI cells assessed as decrease in cell viability after 72 hrs in presence of ERK1 siRNA by Cell-titer Glo reagent assay.

As for `CC(C)Oc1ccc(C(=O)N[C@H](CNC(=O)CN(C)C)Cc2ccc(-c3cn4cccc([C@H](C)O)c4n3)cc2)cc1Cl` [Gsk-923295a], the IC50 in experiment [1] was determined as 283 nM; in experiment [2], 56 nM; in experiment [3] it was 42 nM; in experiment [4], 52 nM; in experiment [5], 134 nM.

Usually IC50 stands for the concentration at which inhibition is half-maximal.
